In patent US12103915B2, “TEAD inhibitors and methods of uses thereof” (Insilico Medicine IP Limited, priority 2022, dated 2024):
pIC50: −log10 of the molar value.

Assays:
TEAD3 = TEAD3 (Homo sapiens, UniProt Q99594); test: Thermal shift assay TEAD3; assay type: binding
Description: (§1) Example B: Thermal Shift Assay
(§2) 1) Prepare a fresh dilution of Protein Thermal Shift™ Dye (Applied Biosystems, 1000×) to 8× by […].
(§3) 2) To ensure the same DMSO concentration, the compounds were diluted as follows: Prepare 10 mM stock solution of compounds;
(§4) The final DMSO concentration was 0.1%
(§5) 10 μM: Diluting stock solution to 100 μM by using PBS.
(§6) 1 μM: Diluting stock solution to 1 mM by using DMSO, then dilute to 10 μM by using PBS.
TEAD3: the stock concentration was 2.4 mg/ml; the final concentration was 0.1 mg/ml.
(§7) 4) Place the appropriate reaction plate or tubes on ice, then prepare the protein melt reactions:
(§8) 5) Pipet each reaction up and down 10 times to mix well.
(§9) 6) Seal the plate with MicroAmp™ Optical Adhesive Film, spin it at 1000 rpm for 1 minute.
(§10) 7) Set up and run on the qPCR instrument.
(§11) Using thermal Shift™ Software v1.3 to analysis.

TEAD2 = TEAD2 (Homo sapiens, UniProt Q15562); test: Thermal shift assay TEAD2; assay type: binding
TEAD2, sequence (Q15562 whole entry, species assumed): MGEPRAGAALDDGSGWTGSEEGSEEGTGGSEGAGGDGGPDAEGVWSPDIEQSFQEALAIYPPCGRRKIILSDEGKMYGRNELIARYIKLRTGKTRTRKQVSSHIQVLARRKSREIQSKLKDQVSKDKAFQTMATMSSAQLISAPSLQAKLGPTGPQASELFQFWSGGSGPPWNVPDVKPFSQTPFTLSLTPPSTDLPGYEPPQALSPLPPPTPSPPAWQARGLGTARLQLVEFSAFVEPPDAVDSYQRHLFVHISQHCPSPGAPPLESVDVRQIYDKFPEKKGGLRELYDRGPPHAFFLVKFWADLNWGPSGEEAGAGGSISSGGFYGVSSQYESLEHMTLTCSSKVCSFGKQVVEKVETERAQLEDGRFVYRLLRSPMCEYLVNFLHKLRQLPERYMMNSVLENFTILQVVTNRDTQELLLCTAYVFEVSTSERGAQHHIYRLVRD
Description: as §1, §2, §3, §4, §5, §6
(§12) TEAD1: the stock concentration was 2.9 mg/ml; the final concentration was 0.2 mg/ml. TEAD2: the stock concentration was 1.8 mg/ml; the final concentration was 0.08 mg/ml.
as §7, §8, §9, §10, §11

TEAD1 = TEAD1 (Homo sapiens, UniProt P28347); test: Thermal shift assay TEAD1; assay type: binding
TEAD1, sequence (P28347 whole entry, species assumed): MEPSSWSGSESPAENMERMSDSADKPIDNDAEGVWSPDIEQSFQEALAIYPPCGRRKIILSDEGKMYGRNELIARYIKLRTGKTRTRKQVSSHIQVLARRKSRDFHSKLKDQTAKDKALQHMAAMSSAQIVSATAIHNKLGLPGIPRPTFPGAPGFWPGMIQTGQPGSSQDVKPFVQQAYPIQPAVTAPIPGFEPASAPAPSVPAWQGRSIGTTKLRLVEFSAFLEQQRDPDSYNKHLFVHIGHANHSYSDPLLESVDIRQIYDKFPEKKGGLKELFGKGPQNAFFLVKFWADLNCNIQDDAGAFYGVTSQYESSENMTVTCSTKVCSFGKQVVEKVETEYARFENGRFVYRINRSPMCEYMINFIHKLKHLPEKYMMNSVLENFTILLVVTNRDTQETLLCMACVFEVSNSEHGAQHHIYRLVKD
Description: as §1, §2, §3, §4, §5, §6, §12, §7, §8, §9, §10, §11

TEAD4 = TEAD4 (Homo sapiens, UniProt Q15561); test: Thermal shift assay TEAD4; assay type: binding
TEAD4, sequence (Q15561 whole entry, species assumed): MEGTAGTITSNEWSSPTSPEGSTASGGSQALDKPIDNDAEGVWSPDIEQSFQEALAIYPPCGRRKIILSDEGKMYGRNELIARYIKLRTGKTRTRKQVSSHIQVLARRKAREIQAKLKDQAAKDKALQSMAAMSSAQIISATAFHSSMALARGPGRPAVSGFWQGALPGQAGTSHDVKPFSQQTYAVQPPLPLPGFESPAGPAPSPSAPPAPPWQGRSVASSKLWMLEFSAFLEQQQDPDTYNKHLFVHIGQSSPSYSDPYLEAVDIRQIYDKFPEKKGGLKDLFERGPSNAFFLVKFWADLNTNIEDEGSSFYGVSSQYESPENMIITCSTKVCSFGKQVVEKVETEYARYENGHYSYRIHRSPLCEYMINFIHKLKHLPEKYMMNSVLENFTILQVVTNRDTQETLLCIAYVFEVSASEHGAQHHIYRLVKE
Description: as §1, §2, §3, §4, §5, §6
TEAD4: the stock concentration was 2.3 mg/ml; the final concentration was 0.1 mg/ml.
as §7, §8, §9, §10, §11

NCI-H226 cells = test: Cell growth assay (CellTiter-Glo); assay type: cell-based, human; settings: Homo sapiens, NCI-H226, 168 h, 7 days treatment, CellTiter-Glo luminescence, read-out: H226 CTG IC50
Description: Example A: Cell Growth Assay
CellTiter-Glo reagent (CTG reagent, Promega, G7573).
[…] Also seeding an extra plate as Day 0 control measurement. The microplates were incubated at 37° C., 5% CO2 overnight.
Compounds were 3-fold serial diluted in DMSO and final top-concentration was […], 10 points. 0.3% DMSO as vehicle control. In addition, […] of CTG reagent was added into the extra plate and incubated at room temperature for 30 minutes and detected luminescence signals as Day 0 control by using EnVision (PerkinElmer, 2104 Mutilabel Reader).
Incubated other compounds treated plates at 37° C. for another 7 days and […] of CTG reagent was added into the plates and incubated at room temperature for 30 minutes and detected luminescence signals.
Day 0 luminescence signals were used as negative control or baseline. • Signalday0=average luminescence signals of Day 0 control cells. • Signalblank control=average luminescence signals of blank control. • SignalDMSO vehicle control=average luminescence signals of Day 7 DMSO vehicle control cells. • Signalcpds treatment=luminescence signals of Day 7 compounds treatment cells. Inhibition %=1−(Signalcpds treatment−Signalblank control)/(SignalDMSO vehicle control−Signalblank control)*100.
(Inhibitory concentration 50% (IC50) and maximum inhibition % were calculated using dose response curves.

TEAD3, sequence (Q99594 whole entry, species assumed): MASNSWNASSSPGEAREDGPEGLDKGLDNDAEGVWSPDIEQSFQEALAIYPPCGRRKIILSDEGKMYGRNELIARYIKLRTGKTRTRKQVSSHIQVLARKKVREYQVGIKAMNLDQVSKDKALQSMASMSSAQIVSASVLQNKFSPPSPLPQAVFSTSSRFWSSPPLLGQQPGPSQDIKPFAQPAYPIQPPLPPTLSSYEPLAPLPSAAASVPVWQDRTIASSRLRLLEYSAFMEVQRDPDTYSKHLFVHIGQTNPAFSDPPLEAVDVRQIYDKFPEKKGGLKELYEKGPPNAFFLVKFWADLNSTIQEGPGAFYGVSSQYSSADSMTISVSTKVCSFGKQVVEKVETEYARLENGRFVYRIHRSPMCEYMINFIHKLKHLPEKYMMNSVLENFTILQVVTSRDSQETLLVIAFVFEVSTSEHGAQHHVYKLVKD

| SMILES | TEAD3 ΔTm (TEAD3) | TEAD2 ΔTm (TEAD2) | TEAD1 ΔTm (TEAD1) | TEAD4 ΔTm (TEAD4) | pIC50 (NCI-H226 cells) |
| --- | --- | --- | --- | --- | --- |
| CNC(=O)[C@@H]1CC1c1cc(OCc2ccc(C(F)(F)F)cc2)cc2c1cnn2C (mixture of isomers) [Example 37] | 0.1 °C | 0.9 °C | 0.2 °C | 0.1 °C | 4.52 to 6.00 |
| CNC(=O)[C@@H]1CC1c1cc(-c2ccc(C(F)(F)F)cc2)cc2cccnc12 (mixture of isomers) [Example 38] | 0.5 °C | 0.8 °C | 1.1 °C | 0.2 °C | 6.30 to 7.00 |
| CNC(=O)[C@@H]1CC1c1cc(-c2ccc(C(F)(F)F)cc2)cc2scnc12 (mixture of isomers) [Example 39] | 0 °C | 0 °C | 0 °C | 0 °C | 4.52 to 6.00 |
| CNS(=O)(=O)[C@@H]1CC1c1cc(Oc2ccc(C(F)(F)F)cc2)cc2cn(C)nc12 (mixture of isomers) [Example 51] | 10.6 °C | 9.7 °C | 7.5 °C | 9.1 °C | 4.52 to 6.00 |
| CC(C)NC(=O)[C@@H]1CC1c1cc(Oc2ccc(C(F)(F)F)cc2)cc2cn(C)nc12 (mixture of isomers) [Example 56] | 7.2 °C | 9 °C | 8.3 °C | 8.6 °C | > 7.00 |
| CC(NC(=O)[C@@H]1CC1c1cc(Oc2ccc(C(F)(F)F)cc2)cc2cn(C)nc12)c1ccccn1 (mixture of isomers) [Example 57] | 12.4 °C | 9.4 °C | 7.6 °C | 14 °C | 6.30 to 7.00 |
| CNC(=O)[C@@H]1CC1c1cc(Oc2ccc(C(F)(F)F)cc2)cc2cn(C3CC3)nc12 (mixture of isomers) [Example 78] | 0.4 °C | 11.1 °C | 9.2 °C | 6.6 °C | 6.30 to 7.00 |
| CNC(=O)[C@@H]1CC1c1cc(Oc2ccc(C(F)(F)F)cc2)cc2cn(C(F)F)nc12 (mixture of isomers) [Example 79] | 1.0 °C | 12.3 °C | 8.1 °C | 7.7 °C | 6.30 to 7.00 |
| CNC(=O)[C@@H]1CC1c1cc(Oc2ccc(C(F)(F)F)cc2)cc2cccnc12 (mixture of isomers) [Example 80] | 5.1 °C | 10.5 °C | 6.0 °C | 6.2 °C | 6.30 to 7.00 |
| CNS(=O)(=O)[C@@H]1CC1c1cc(Oc2ccc(C(F)(F)F)cc2)cc2cccnc12 (mixture of isomers) [Example 81] | 8.9 °C | 9.6 °C | 5.5 °C | 8.2 °C | 6.00 to 6.30 |
| Cn1cc2cc(OC3CC4(C3)CC(F)(F)C4)cc(C3C[C@H]3C(=O)O)c2n1 (mixture of isomers) [Example 93] | 1.3 °C | 9.3 °C | 6.7 °C | 6.4 °C | 6.30 to 7.00 |
| CNC(=O)[C@@H]1CC1c1cc(OC2CC3(C2)CC(F)(F)C3)cc2cn(C)nc12 (mixture of isomers) [Example 94] | 0.7 °C | 6.5 °C | 3.3 °C | 2.6 °C | 6.30 to 7.00 |
| O=C(O)[C@@H]1C[C@H]1c1cc(Oc2ccc(C(F)(F)F)cc2)cc2c1NCCC2 (racemic) [Example 144] | 13.1 °C | 18.2 °C | 10.6 °C | 9.9 °C | 4.52 to 6.00 |
| CNC(=O)[C@@H]1C[C@H]1c1cc(Oc2ccc(C(F)(F)F)cc2)cc2c1NCCC2 (racemic) [Example 145] | 1.0 °C | 9.9 °C | 4.8 °C | 2.9 °C | 6.30 to 7.00 |
| CNS(=O)(=O)[C@@H]1C[C@H]1c1cc(Oc2ccc(C(F)(F)F)cc2)cc2c1NCCC2 (racemic) [Example 146] | 1.0 °C | 12.0 °C | 5.5 °C | 6.7 °C | 6.30 to 7.00 |
| CNC(=O)[C@@H]1C[C@H]1c1cc(Oc2ccc(C(F)(F)F)cc2)cc2cn(C)nc12 (single isomer, unassigned) [Example 34a] | 1.4 °C | 10.2 °C | 5.2 °C | 5.2 °C | 6.30 to 7.00 |
| [2H]C([2H])([2H])NC(=O)[C@@H]1C[C@H]1c1cc(Oc2ccc(C(F)(F)F)cc2)cc2cn(C)nc12 (single isomer, unassigned) [Example 52] | −0.5 °C | 9.8 °C | 4.7 °C | 4.3 °C | 4.52 to 6.00 |
| [2H]C([2H])([2H])NC(=O)[C@H]1CC1c1cc(Oc2ccc(C(F)(F)F)cc2)cc2cn(C)nc12 (single isomer, unassigned) [Example 53] | 9.8 °C | 13.7 °C | 9.2 °C | 10.5 °C | > 7.00 |
| C[C@@H](CO)NC(=O)[C@@H]1CC1c1cc(Oc2ccc(C(F)(F)F)cc2)cc2cn(C)nc12 (single isomer, unassigned) [Example 54] | 1.2 °C | 9.8 °C | 8.5 °C | 9.5 °C | > 7.00 |
| C[C@H](CO)NC(=O)[C@@H]1CC1c1cc(Oc2ccc(C(F)(F)F)cc2)cc2cn(C)nc12 (single isomer, unassigned) [Example 55] | 10.2 °C | 11.1 °C | 11.3 °C | 11.5 °C | > 7.00 |
| CC(C)NC(=O)[C@@H]1C[C@H]1c1cc(Oc2ccc(C(F)(F)F)cc2)cc2cn(C)nc12 (single isomer, unassigned) [Example 56a] | −0.3 °C | 6.5 °C | 5.4 °C | 2.6 °C | 6.00 to 6.30 |
| CC(C)NC(=O)[C@H]1C[C@@H]1c1cc(Oc2ccc(C(F)(F)F)cc2)cc2cn(C)nc12 (single isomer, unassigned) [Example 56b] | 8.1 °C | 10.0 °C | 9.1 °C | 12.5 °C | > 7.00 |
| Cn1cc2cc(Oc3ccc(C(F)(F)F)cc3)cc([C@H]3C[C@@H]3C(=O)N[C@@H](CO)c3ccccn3)c2n1 (single isomer, unassigned) [Example 59a] | 0.4 °C | 4.7 °C | 6.9 °C | 7.9 °C | 6.30 to 7.00 |
| Cn1cc2cc(Oc3ccc(C(F)(F)F)cc3)cc([C@@H]3C[C@H]3C(=O)N[C@@H](CO)c3ccccn3)c2n1 (single isomer, unassigned) [Example 59b] | 13.1 °C | 11.3 °C | 9.4 °C | 15.6 °C | 6.30 to 7.00 |
| Cn1cc2cc(Oc3ccc(C(F)(F)F)cc3)cc([C@@H]3C[C@H]3C(=O)N3CC(C)(O)C3)c2n1 (single isomer, unassigned) [Example 60] | 11.2 °C | 12.7 °C | 9.5 °C | 12.3 °C | > 7.00 |
| Cn1cc2cc(Oc3ccc(C(F)(F)F)cc3)cc([C@@H]3C[C@H]3C(=O)N3CCO[C@H](CO)C3)c2n1 (single isomer, unassigned) [Example 61] | 0.8 °C | 12.2 °C | 9.3 °C | 10.4 °C | > 7.00 |
| Cn1cc2cc(Oc3ccc(C(F)(F)F)cc3)cc([C@@H]3C[C@H]3C(=O)N3CCO[C@@H](CO)C3)c2n1 (single isomer, unassigned) [Example 62] | 1.2 °C | 10.6 °C | 7.4 °C | 7.7 °C | > 7.00 |
| Cn1cc2cc(Oc3ccc(C(F)(F)F)cc3)cc([C@@H]3C[C@H]3C(=O)NCC#N)c2n1 (single isomer, unassigned) [Example 66] | 10.6 °C | 14.7 °C | 11.1 °C | 11.7 °C | > 7.00 |
